Active and inactive are the calls of the source. No rule for the calls is given here.
Test system: Saccharomyces cerevisiae lifespan extension, no nicotinamide
Experiment: yeast lifespan extension without nicotinamide, confirmation, yeast lifespan extension project, S. cerevisiae (AID 812);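 also: growth read as optical density after 42 hours of incubation at 30C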

| SMILES | EC50 |
| --- | --- |
| Nc1sc(-c2ccccc2)cc1C(=O)O | > 40 µM (inactive) |
| CCOC(=O)C1=C(C)Nc2nc(=S)[nH]n2C1c1ccc(Cl)cc1 (stereo unspecified) | > 40 µM (inactive) |
| N#C/C(=C\c1ccccc1)C(=O)N(c1ccccn1)C1CCCCC1 | > 40 µM (inactive) |
| CN(C)/C=C(/C(=O)c1ccc(Cl)cc1Cl)S(=O)(=O)c1ccc(Cl)cc1 | > 40 µM (inactive) |
| Nc1cccc2c1C(=O)N(C(=O)c1ccc(Cl)c(S(=O)(=O)N3CCCCCC3)c1)C2=O | > 40 µM (inactive) |
| C=C(C)CN(CC)C(=O)COc1ccc(S(=O)(=O)Nc2ccc(OC)cc2)cc1 | > 40 µM (inactive) |
| CC(C)(C)C(=O)/C(=C/c1cccc([N+](=O)[O-])c1)n1cncn1 | > 40 µM (inactive) |
| COC(=O)CSc1ncccc1-c1nc2ccccc2[nH]1 | > 40 µM (inactive) |
| COCCCN(C(=S)Nc1cc(Cl)cc(Cl)c1)C(C)c1ccncc1 (stereo unspecified) | > 40 µM (inactive) |
| CCc1oc2ccccc2c1C(=O)CCN1CCCCC1 | > 40 µM (inactive) |
| COc1ccc(O)c(C(=O)c2cc(C#N)c(=O)n(CC3CCCO3)c2)c1 (stereo unspecified) | > 40 µM (inactive) |
| COc1cc(Br)cc(-c2nc3c(c(=O)[nH]c(=O)n3Cc3ccccc3)n2C)c1O | > 40 µM (inactive) |
| CCOC(=O)Cc1csc(NC(=O)c2c(O)c3ccccc3n(CC(C)C)c2=O)n1 | > 40 µM (inactive) |
| CCCCNC(=O)/C(C#N)=C/c1cccnc1 | > 40 µM (inactive) |
| COc1ccccc1C(=O)Oc1ccc2c(c1)O/C(=C\c1ccncc1)C2=O | > 40 µM (inactive) |
| Cc1cccc(N2C(=O)/C(=C\c3ccc(OC(F)F)cc3)c3ccccc3C2=O)c1 | > 40 µM (inactive) |
| CC(=O)Nc1ccc(C(=O)CSc2nnc(-c3ccc(O)cc3)n2CC2CCCO2)cc1 (stereo unspecified) | > 40 µM (inactive) |
| O=S(=O)(Nc1cccc2c1CCCC2)c1ccc(Cl)cc1 | > 40 µM (inactive) |
| O=C(Nc1cccc(Cl)c1)c1ccc2c(=O)n3c(nc2c1)CCCCC3 | > 40 µM (inactive) |
| Cc1cc(C=C2C(=O)N(C)C(=S)N(C)C2=O)c(C)n1-c1cccnc1 | > 40 µM (inactive) |
| COCCCNC(CC(=O)Nc1ccc(OC)cc1OC)C(=O)O (stereo unspecified) | > 40 µM (inactive) |
| CC(=O)Nc1c(O)nc(SCc2ccccc2C#N)[nH]c1=O | > 40 µM (inactive) |
| CCOC(=O)CCCNC(=O)COc1ccccc1C#N | > 40 µM (inactive) |
| CCOC(=O)c1c(NC(=O)C2C3C=CC(C3)C2C(=O)O)sc2c1CCC(CC)C2 (stereo unspecified) | > 40 µM (inactive) |

| SMILES | EC50 |
| --- | --- |
| CC(C)Cn1c(=O)c(C(=O)Nc2cnccn2)c(O)c2ccccc21 | > 40 µM (inactive) |
| Cc1c(NC(=O)C(=O)/C=C(/O)c2ccccc2)c(=O)n(-c2ccccc2)n1C | > 40 µM (inactive) |
| Cc1ccc(/C=C2/C(=O)NC(=O)N(CCc3ccc(F)cc3)C2=O)o1 | > 40 µM (inactive) |
| CCCCCC1CC1C(=O)N/N=C/c1ccc(N(C)C)cc1 (stereo unspecified) | > 40 µM (inactive) |
| COc1ccc(/C(O)=C/C(=O)C(=O)Nc2c(C)n(C)n(-c3ccccc3)c2=O)cc1 | > 40 µM (inactive) |
| CCCCCCN1CC(C(=O)OCC)C(=O)C1=O (stereo unspecified) | > 40 µM (inactive) |
| Cc1ccc(C(C2=C(O)CC(C)(C)CC2=O)C2C(=O)CC(C)(C)CC2=O)o1 (stereo unspecified) | > 40 µM (inactive) |
| Cc1ccc2[nH]c3c(c2c1)CC/C(=C/c1ccccc1)C3=O | > 40 µM (inactive) |
| O=C1NCC2=C1C(c1ccc(Br)cc1)Nc1ccccc1N2 (stereo unspecified) | > 40 µM (inactive) |
| O=C1NC(=O)N(CCC2=CCCCC2)C(=O)/C1=C\c1cccs1 | > 40 µM (inactive) |
| O=C(NC(=S)NNC(=O)c1ccc(Cl)cc1Cl)c1cccnc1 | > 40 µM (inactive) |
| C=CCn1c(-c2ccc(OC)cc2)csc1=Nc1c(C)n(C)n(-c2ccccc2)c1=O | > 40 µM (inactive) |
| COc1cc(OC)cc(-c2nc3ccccc3c(=O)n2OC(=O)c2ccc(Br)cc2)c1 | > 40 µM (inactive) |
| CC(C)c1ccc2occ(-c3nn[nH]n3)c(=O)c2c1 | > 40 µM (inactive) |
| COc1c(Br)cc(Br)cc1/C=N/n1c(C)nnc1C | > 40 µM (inactive) |
| COc1ccc(CNC(=O)c2c(O)c3cccc4c3n(c2=O)CCC4)cc1 | > 40 µM (inactive) |
| Cc1nc2ccccc2n1-c1ccccc1 | > 40 µM (inactive) |
| COCCn1c(SCC(=O)Nc2ccc(C)cc2)nc2c(oc3ccccc32)c1=O | > 40 µM (inactive) |
| CC(C)(C)OC(=O)[C@H]1[C@H](c2ccc([N+](=O)[O-])cc2)C2(C(=O)c3ccccc3C2=O)C2c3ccccc3C=NN21 (stereo partly specified) | > 40 µM (inactive) |
| O=c1c2c3c(sc2ncn1/N=C/c1ccc([N+](=O)[O-])o1)CCCC3 | > 40 µM (inactive) |
| CCCCC1C(=O)CC[C@H]2[C@@H]1CC(=O)[C@@H]2C/C=C\CCCC(=O)O (stereo partly specified) | > 40 µM (inactive) |
| Cc1ccc2[nH]c(=O)c(CN(CCO)Cc3nnnn3CCc3ccccc3)cc2c1 | > 40 µM (inactive) |
| O=C(Nc1scc(-c2ccc(F)cc2)c1C(=O)O)c1ccco1 | > 40 µM (inactive) |
| CCOC(=O)C1CCN(C(c2cc3ccc(C)c(C)c3[nH]c2=O)c2nnnn2C2CCCCC2)CC1 (stereo unspecified) | > 40 µM (inactive) |

| SMILES | EC50 |
| --- | --- |
| Cc1nc2c(=O)n(C)c(=O)n(C)c2nc1Cl | > 40 µM (inactive) |
| ClC(Cl)(c1nnnn1-c1ccccc1)c1nnnn1-c1ccccc1 | > 40 µM (inactive) |
| C/C(=N\NC(=O)c1ccccc1O)C1C(=O)c2ccccc2C1=O | > 40 µM (inactive) |
| Oc1ccc(NCc2ccccc2OCc2ccccc2F)cc1 | > 40 µM (inactive) |
| CC[n+]1ccc(C[n+]2ccccc2)c2ccccc21 | > 40 µM (inactive) |
| COc1cc(OC)cc(-c2nc3ccccc3c(=O)n2OC(=O)c2ccc(C)c(C)c2)c1 | > 40 µM (inactive) |
| CCC(=O)N1CCN(CCN=CC2=C(O)CC(c3cccs3)CC2=O)CC1 (stereo unspecified) | > 40 µM (inactive) |
| CCOc1ccc(NCc2nc3ccccc3n2CCOc2ccccc2)cc1 | > 40 µM (inactive) |
| O=CN(/C=C1\Sc2ccccc2C1=O)Cc1ccccc1 | > 40 µM (inactive) |
| Cc1ccc(N2NC(=O)/C(=C\c3cc4c(cc3[N+](=O)[O-])OCO4)C2=O)cc1C | > 40 µM (inactive) |
| O=C(c1ccccc1)C(CN1CCCC1)c1ccccc1 (stereo unspecified) | > 40 µM (inactive) |
| Cc1ccc(CNc2nc3ccccc3s2)s1 | > 40 µM (inactive) |
| O=C1c2ccccc2C(=O)N1c1ncc(Cc2ccc(Cl)cc2)s1 | > 40 µM (inactive) |
| Cc1[nH]n(-c2ccccc2)c(=O)c1N=Nc1nccs1 | > 40 µM (inactive) |
| CC(C)Cc1nn2c(=O)cc(O)nc2s1 | > 40 µM (inactive) |
| O=C(O)CCCCCN1C(=O)/C(=C\c2ccncc2)SC1=S | > 40 µM (inactive) |
| Fc1cccc2sc(Nc3nnc(-c4ccccc4)o3)nc12 | > 40 µM (inactive) |
| CC1(C)CC2c3cccc(C(=O)O)c3C(=O)N2c2c1ccc1ccccc21 (stereo unspecified) | > 40 µM (inactive) |
| O=C(NCc1cccnc1)c1ccc(S(=O)(=O)N2CCCCC2)cc1 | > 40 µM (inactive) |
| CCCCn1c(/N=C/c2ccccc2NS(=O)(=O)c2ccc(C)cc2)nc2ccccc21 | > 40 µM (inactive) |
| CC(=C1C(=O)c2ccccc2C1=O)N1CCN(c2ccccn2)CC1 | > 40 µM (inactive) |
| CCCn1[nH]cc(SC)c(=O)c1=O | > 40 µM (inactive) |
| O=Cc1ccccc1OS(=O)(=O)c1ccccc1 | > 40 µM (inactive) |
